Assay results: patent US9199200B2, “Submerged membrane bioreactor system and biological methods for removing bisphenol compounds from municipal wastewater” (Centre de Recherche Industrielle de Québec (CRIQ), priority 2010, dated 2015)

What was measured:
[1] = Adsorption kinetics of BPA on inactivated sludge (pseudo-first order, pseudo-second order, Elovich); format: physicochemical
Method: According to the second set of assays, adsorption kinetic is evaluated using 200 mL of inactivated sludge at 15 g L^−1 and 2.0 mg/L of BPA is initially used. The flasks are shaken at 150 rpm at 22±2° C. and samples are taken at regular interval times (5, 10, 15, 20, 30, 40, 60, 80, 100, 120 min). Several appropriate models are reported in literature, but for the purposes of the experiments, three models are used, namely the Lagergren model (first order model) as described by Lagergren in Kung Sven. Veten. Hand 24 (1898) 1-39, the pseudo-second-order as described by Ho et al. in Process Biochemistry 34 (1999) 451-465, and the Elovich model as described in Chemical reviews (1960) 267-312.
Adsorption kinetic allows controlling the efficiency of the process and can be helpful to understand the mechanisms of the sorption process. To evaluate the sorption rate, the kinetic data are modeled using pseudo-first order and pseudo-second order equations. The kinetic models parameters are estimated by regression analysis method using Excel™ software. In accordance with Lagegren as cited above and with Bhattacharya et al., J. Env. Eng. ASCE 110 (1984) 110-122, pseudo-first order chemical sorption is described by the following equation (Eq. (15)):
This model is based on the assumption that the rate is proportional to the number of free sites. Integrating Eq. (15) with boundary conditions qt=0 at t=0 and qt=qt at t=t gives (Eq. (16)): ln(qe−qt)=ln qe−k1t (16)
In accordance with Ho et al. as cited above, for the rate constant of pseudo-second order chemical sorption, the following equation (Eq. (17)) has been also applied: […]
A third model, known as Elovich model described in Low et al. cited above, has been applied using the following equation (Eq. (19)): […]
If an amount (q0) of adsorbate is instantaneously adsorbed, after integration equation Eq. (20) becomes (Eq. (21)): […]

[2] = Sorption time course of BPA on activated and inactivated sludge in shake flasks; format: physicochemical; details: average over the first 30 min; initial 5.0 or 10 mg/L; 15 g TSS/L
Method: To elucidate the plausible mechanisms of the biological removal of the bisphenol compounds, the removal of BPA was tested (adsorption on the biomass versus biological oxidation), and additional experiments are carried out in Erlenmeyer shake flasks containing either activated sludge or inactivated sludge in the presence of BPA. The sludge used for the tests is withdrawn from the SMBR unit. Prior to BPA addition in activated sludge sample, sludge is initially centrifuged at 8000 rpm at 4° C. for 10 min and softly washed. The inactivated sludge is prepared by subjecting sludge samples to a sterilization by adding 1.0 mL HgSO4 (20 g/L) to 200 mL of sludge. Then, the sterilized and centrifuged sample sludge is placed in conical flasks and shaken at 150 rpm at 22±2° C. for 2 h, and then centrifuged at 8000 rpm at 4° C. for 10 min. Different concentrations of BPA (0.45 to 18.2 mg/L) are added in the same mass of sludge (3.0 g of sludge diluted to 200 mL with milli-Q water). […] The flasks are shaken at 150 rpm at 22±2° C., pH=7±0.5 for 24 h and samples are taken in regular time intervals, and the amount of BPA adsorbed is determined by measuring the residual BPA concentrations in solution The same assay is carried out using inactivated sludge. […]

[3] = 2.0 mg/L BPA, 15 g/L inactivated sludge

Q: Which “q0 as share of the amount of BPA adsorbed at equilibrium (qe)” value [1] does the source give for `CC(C)(c1ccc(O)cc1)c1ccc(O)cc1` [BPA, 2,2-Bis(4-hydroxyphenyl)propane] here?
A: 1.2%

Q: And the “k1, pseudo-first order rate constant” value [1, 3]?
A: 0.032 min⁻¹

Q: What about the “k2, pseudo-second order rate constant” value [1, 3] of the same compound?
A: 0.194 g/mg/min

Q: And the “q0, amount of BPA instantaneously adsorbed (Elovich)” value [1, 3]?
A: 0.0013 mg/g

Q: What about the “qe, pseudo-first order (Lagergren)” value [1, 3] of the same compound?
A: 0.109 mg/g

Q: And the “qe, pseudo-second order” value [1, 3]?
A: 0.132 mg/g

Q: And the “α (Elovich)” value [1, 3]?
A: 24.98 g/mg

Q: What about the “α (Elovich), second parameter” value [1, 3] of the same compound?
A: 0.0040 mg/g/min

Q: And the “BPA removed by physical sorption” value [2]?
A: 69%
